Assay results published in patent publication US7625948B2, “Ester compound and medicinal use thereof” (Japan Tobacco Inc., priority 2002, dated 2009).

Legend:
[1] = Test Example 7: metabolic stability test in human liver S9; format: in vitro ADME; settings: human liver S9, 2 mg protein/mL, 37° C.
Procedure: (§1) Metabolic Stability Test in Liver S9 and Small Intestine S9
(§2) Human and hamster liver S9 (final concentration: 2 mg protein/mL), and human and hamster small intestine S9 (final concentration: 2 mg protein/mL) were each suspended in 100 mM potassium phosphate buffer (pH 7.4, containing β-nicotinamide adenine dinucleotide phosphate: 1.3 mM, D-glucose-6-phosphate: 3.3 mM, magnesium chloride: 3.3 mM, glucose-6-phosphate dehydrogenase: 0.4 U/mL). The suspensions were mixed with a solution of a sample (Example 2-5) in DMSO. The solutions were incubated at 37° C. for 0, 10 and 60 minutes, and an organic solvent was added thereto. The solutions were centrifuged, and the concentration of the sample (unchanged form) in the supernatant was determined by high performance liquid chromatography/mass spectrometry (LC/MS). Based on the data obtained, remaining rate (%) was calculated according to the following equation.
(§3) Remaining rate(%)=amount of sample 10 or 60 minutes after incubation/amount of sample at zero time after incubation×100

[2] = Test Example 7: metabolic stability test in human small intestine S9; format: in vitro ADME; settings: human small intestine S9, 2 mg protein/mL, 37° C.
Procedure: as §1, §2, §3

[3] = Test Example 7: metabolic stability test in hamster liver S9; format: in vitro ADME; settings: hamster liver S9, 2 mg protein/mL, 37° C.
Procedure: as §1, §2, §3

[4] = test system: Japanese white rabbits; assay: Test Example 5: combination use test in cholesterol-loaded rabbit model (plasma cholesterol); format: in vivo; settings: 10 mg/kg in high cholesterol diet, from grouping to the 4th day
Procedure: Japanese white rabbits (male, 19 weeks of age, JW, purchased from Kitayama Labes Co., Ltd.) were fed previously in such a way that they were fed a high cholesterol diet (0.3% cholesterol+3% peanut oil-added RC-4, Product of Oriental Yeast Co., Ltd.) of 70 g/day under limited feeding for one day. The rabbits thus fed were used as a cholesterol-loaded rabbit model, and the grouping of such model was carried out in such a way that there might be no variation in the amount of plasma cholesterol among each group (five rabbits/group). […] The rabbits were fed 70 g of each diet every morning. Blood was collected from auricular artery 6 hours after the feeding on the 4th day of the administration, and cholesterol level in plasma was assayed. In the table, increased amount of plasma cholesterol during from the time of grouping to the 4th day was shown.

[5] = Test Example 7: metabolic stability test in hamster small intestine S9; format: in vitro ADME; settings: hamster small intestine S9, 2 mg protein/mL, 37° C.
Procedure: as §1, §2, §3

Remaining rate (%) after 10 min. ([1]; 10 min): 7.9%
Remaining rate (%) after 60 min. ([1]; 60 min): 4.3%
Remaining rate (%) after 10 min. ([2]; 10 min): 97.6%
Remaining rate (%) after 60 min. ([2]; 60 min): 91.5%
Remaining rate (%) after 10 min. ([3]; 10 min): 2.4%
Remaining rate (%) after 60 min. ([3]; 60 min): 0%
Remaining rate (%) after 10 min. ([5]; 10 min): 29.0%
Remaining rate (%) after 60 min. ([5]; 60 min): 14.1%
SMILES: CCOC(=O)C(COC(=O)Cc1ccc(NC(=O)c2ccccc2-c2ccc(C(F)(F)F)cc2)c(C(=O)N(C)C)c1)(C(=O)OCC)c1ccccc1 [Example 2-5]
Increased amount of total cholesterol [4]: 8.6 mg/dL
